We go through 13 compounds from patent US20170233413A1, “SUBSTITUTED ANNULATED PYRIMIDINES AND USE THEREOF” (Bayer Pharma Aktiengesellschaft, priority 2014, published 2017).

SMILES strings stand for the structures.

Assay [1] concerns the target T1, human phosphodiesterase 5 (PDE 5) (Homo sapiens, UniProt O76074).
T1 construct: PDE 5 preparations are obtained from human platelets by disruption; from tissue; host or cells: human platelets
The assay can be described thus: Inhibition of human phosphodiesterase 5 (PDE 5). The settings on record: PDE 5 preparation from human platelets; in some cases means of individual determinations. The assay is classed as biochemical. The protocol: B-3. Inhibition of Human Phosphodiesterase 5 (PDE 5)
PDE 5 preparations are obtained from human platelets by disruption (Microfluidizer®, 800 bar, 3 passes), followed by centrifugation (75 000 g, 60 min, 4° C.) and ion exchange chromatography of the supernatant on a Mono Q 10/10 column (linear sodium chloride gradient, elution with a 0.2-0.3M solution of sodium chloride in buffer (20 mM Hepes pH 7.2, 2 mM magnesium chloride). Fractions having PDE 5 activity are combined (PDE 5 preparation) and stored at −80° C.
To determine their in vitro action on human PDE 5, the test substances are dissolved in 100% DMSO and serially diluted. Typically, dilution series (1:3) from 200 μM to 0.091 μM are prepared (resulting final concentrations in the test: 4 μM to 0.0018 μM). In each case 2 μl of the diluted substance solutions are placed into the wells of microtitre plates (Isoplate-96/200W; Perkin Elmer). Subsequently, 50 μl of a dilution of the above-described PDE 5 preparation are added. The dilution of the PDE 5 preparation is chosen such that during the later incubation less than 70% of the substrate are converted (typical dilution: 1:100; dilution buffer: 50 mM tris/hydrochloric acid pH 7.5, 8.3 mM magnesium chloride, 1.7 mM EDTA, 0.2% BSA). The substrate, [8-^3H] cyclic guanosine-3′,5′-monophosphate (1 μCi/μl; Perkin Elmer), is diluted 1:2000 with assay buffer (50 mM tris/hydrochloric acid pH 7.5, 8.3 mM magnesium chloride, 1.7 mM EDTA) to a concentration of 0.0005 μCi/μl. By addition of 50 μl (0.025 μCi) of the diluted substrate, the enzyme reaction is finally started. The test mixtures are incubated at room temperature for 60 min and the reaction is stopped by adding 25 μl of a suspension of 18 mg/ml yttrium scintillation proximity beads in water (phosphodiesterase beads for SPA assays, RPNQ 0150, Perkin Elmer). The microtitre plates are sealed with a film and left to stand at room temperature for 60 min. Subsequently, the plates are analysed for 30 s per well in a Microbeta scintillation counter (Perkin Elmer). IC50 values are determined using the graphic plot of the substance concentration against percentage PDE 5 inhibition.

Assay [2] deals with T2, recombinant guanylate cyclase reporter cell line (Rattus norvegicus, UniProt P19686+P20595).
T2 construct: expressed in transfected cells
T2 sequence (P19686 1-690): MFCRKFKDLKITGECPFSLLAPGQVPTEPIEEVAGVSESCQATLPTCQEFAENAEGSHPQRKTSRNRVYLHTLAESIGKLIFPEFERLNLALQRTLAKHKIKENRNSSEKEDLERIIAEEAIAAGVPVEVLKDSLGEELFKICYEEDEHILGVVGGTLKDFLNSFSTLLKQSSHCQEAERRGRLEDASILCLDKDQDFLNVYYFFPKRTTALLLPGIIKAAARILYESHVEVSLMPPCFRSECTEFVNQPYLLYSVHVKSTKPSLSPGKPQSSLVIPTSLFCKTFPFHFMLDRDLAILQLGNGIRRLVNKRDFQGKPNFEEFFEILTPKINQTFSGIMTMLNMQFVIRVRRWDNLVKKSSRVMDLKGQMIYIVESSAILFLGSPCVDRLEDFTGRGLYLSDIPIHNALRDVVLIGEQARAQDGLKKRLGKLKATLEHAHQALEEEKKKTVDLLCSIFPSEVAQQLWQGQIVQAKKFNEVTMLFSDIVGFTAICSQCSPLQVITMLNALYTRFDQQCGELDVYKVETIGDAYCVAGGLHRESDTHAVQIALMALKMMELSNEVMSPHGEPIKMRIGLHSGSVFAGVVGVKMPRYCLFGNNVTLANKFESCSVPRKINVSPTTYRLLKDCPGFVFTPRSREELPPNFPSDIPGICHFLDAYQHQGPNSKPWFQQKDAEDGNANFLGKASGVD
T2 sequence (P20595 1-619): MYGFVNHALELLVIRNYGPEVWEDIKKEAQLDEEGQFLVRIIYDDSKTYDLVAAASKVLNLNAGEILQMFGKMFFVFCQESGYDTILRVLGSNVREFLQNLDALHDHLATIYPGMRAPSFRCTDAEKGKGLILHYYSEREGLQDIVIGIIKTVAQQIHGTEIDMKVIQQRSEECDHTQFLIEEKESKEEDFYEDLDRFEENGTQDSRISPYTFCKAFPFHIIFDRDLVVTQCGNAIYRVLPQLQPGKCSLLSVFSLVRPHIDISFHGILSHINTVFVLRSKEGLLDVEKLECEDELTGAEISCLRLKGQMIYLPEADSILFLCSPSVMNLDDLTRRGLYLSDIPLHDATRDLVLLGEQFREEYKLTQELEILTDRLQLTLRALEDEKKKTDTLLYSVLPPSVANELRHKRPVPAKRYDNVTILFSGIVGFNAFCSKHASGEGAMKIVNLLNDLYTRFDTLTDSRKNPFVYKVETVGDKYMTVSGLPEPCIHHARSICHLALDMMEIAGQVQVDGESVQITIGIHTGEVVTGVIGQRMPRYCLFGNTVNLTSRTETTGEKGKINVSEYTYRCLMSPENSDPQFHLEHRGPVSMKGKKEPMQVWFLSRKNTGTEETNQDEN
The assay can be described thus: Effect on a recombinant guanylate cyclase reporter cell line. It is filed as cell-based. The settings on record: MEC = minimum effective concentration; in some cases means of individual determinations. The protocol:
B-2. Effect on a Recombinant Guanylate Cyclase Reporter Cell Line
The cellular activity of the compounds of the invention is determined using a recombinant guanylate cyclase reporter cell line, as described in F. Wunder et al., Anal. Biochem. 2005, 339, 104-112. Representative values (MEC=minimum effective concentration) for the compounds of the invention are shown in the table below (Table 1B; in some cases as means of individual determinations): […]

Regarding `CC(C)C(C)NC(=O)c1nc(-c2nn(Cc3ccccc3F)c3ncccc23)nc2c1C(C)(C)C(=O)N2` (racemic) [Example 133, rac-2-[1-(2-fluorobenzyl)-1H-pyrazolo[3,4-b]pyridin-3-yl]-5,5-dimethyl-N-(3-methylbutan-2-yl)-6-oxo-6,7-dihydro-5H-pyrrolo[2,3-d]pyrimidine-4-carboxamide], the IC50 (as a rule, the midpoint of a concentration-inhibition curve) in assay [1] was 30 nM. For the same compound, in assay [2], the MEC is 1 µM.

Take `CC1(C)C(=O)Nc2nc(-c3nn(Cc4ccccc4F)c4ncccc34)nc(C(=O)NCC(N)CC(F)(F)F)c21` (racemic) [Example 136, rac-N-(2-amino-4,4,4-trifluorobutyl)-2-[1-(2-fluorobenzyl)-1H-pyrazolo[3,4-b]pyridin-3-yl]-5,5-dimethyl-6-oxo-6,7-dihydro-5H-pyrrolo[2,3-d]pyrimidine-4-carboxamide]: the IC50 in assay [1] was 42 nM. Also, the MEC in assay [2] was 1 µM.

The compound `CC1(C)C(=O)Nc2nc(-c3nn(Cc4ccccc4F)c4ncc(F)cc34)nc(C(=O)N3CCCC3)c21` (single isomer, unassigned) [Example 54] registered a half-inhibitory concentration (IC50) in assay [1] of 1200 nM. The MEC in assay [2] turned out to be 0.03 µM.

In assay [1], `CC(N)(CNC(=O)c1nc(-c2nn(Cc3ncccc3F)c3ncc(F)cc23)nc2c1C(C)(C)C(=O)N2)CC(F)F` (single isomer, unassigned) [Example 56] displayed an IC50 of 120 nM. Moreover, in assay [2], the MEC came out at 3 µM.

`Cc1nc2c(cc1F)c(-c1nc3c(c(C(=O)NCC(C)(N)CC(F)F)n1)C(C)(C)C(=O)N3)nn2Cc1cccc(F)c1F` (single isomer, unassigned) [Example 57] gave an IC50 in assay [1] of 100 nM. Moreover, in assay [2], the MEC worked out at 1 µM.

As for `Cc1nc2c(cc1F)c(-c1nc3c(c(C(=O)NCC(C)(N)CC(F)F)n1)C(C)(C)C(=O)N3)nn2Cc1cccc(F)c1F` (single isomer, unassigned) [Example 58], in assay [1], inhibition was half-maximal at 86 nM (IC50). For the same compound, in assay [2], the MEC was 1 µM.

In assay [1], `CC(N)(CNC(=O)c1nc(-c2nn(Cc3ncccc3F)c3ncc(F)cc23)nc2c1C(C)(C)C(=O)N2)CC(F)F` (single isomer, unassigned; enantiomer a) [Example 55, ent-N-(2-Amino-4,4-difluoro-2-methylbutyl)-2-{5-fluoro-1-[(3-fluoropyridin-2-yl)methyl]-1H-pyrazolo[3,4-b]pyridin-3-yl}-5,5-dimethyl-6-oxo-6,7-dihydro-5H-pyrrolo[2,3-d]pyrimidine-4-carboxamide (enantiomer A)] came in with a 50% inhibitory concentration (IC50) of 190 nM. Also, the MEC in assay [2] was 3 µM.

In turn, `Cc1nc2c(cc1F)c(-c1nc3c(c(C(N)=O)n1)C(C)(C(F)(F)F)C(=O)N3)nn2Cc1cccc(F)c1F` (single isomer, unassigned; ent-2) [Example 10, ent-2-[1-(2,3-Difluorobenzyl)-5-fluoro-6-methyl-1H-pyrazolo[3,4-b]pyridin-3-yl]-5-methyl-6-oxo-5-(trifluoromethyl)-6,7-dihydro-5H-pyrrolo[2,3-d]pyrimidine-4-carboxamide (enantiomer A)] gave an IC50 in assay [1] of 110 nM. In addition, the MEC in assay [2] was found to be 0.3 µM.

Compound `Cc1nc2c(cc1F)c(-c1nc3c(c(C(N)=O)n1)C(C)(C(F)(F)F)C(=O)N3)nn2Cc1cccc(F)c1F` (single isomer, unassigned; ent-2) [Example 11, ent-2-[1-(2,3-Difluorobenzyl)-5-fluoro-6-methyl-1H-pyrazolo[3,4-b]pyridin-3-yl]-5-methyl-6-oxo-5-(trifluoromethyl)-6,7-dihydro-5H-pyrrolo[2,3-d]pyrimidine-4-carboxamide (enantiomer B)] registered a concentration for half-maximal inhibition (IC50) in assay [1] of 91 nM. Moreover, the MEC in assay [2] came out at 0.1 µM.

Turning to `Cc1nc2c(cc1F)c(-c1nc3c(c(C(N)=O)n1)C(C)(C(F)(F)F)C(=O)N3)nn2Cc1ccccc1F` (single isomer, unassigned; ent-2) [Example 13, ent-2-[5-fluoro-1-(2-fluorobenzyl)-6-methyl-1H-pyrazolo[3,4-b]pyridin-3-yl]-5-methyl-6-oxo-5-(trifluoromethyl)-6,7-dihydro-5H-pyrrolo[2,3-d]pyrimidine-4-carboxamide (enantiomer A)], the concentration for half-maximal inhibition (IC50) in assay [1] came out at 600 nM. In addition, the MEC in assay [2] turned out to be 0.1 µM.

Take `Cc1nc2c(cc1F)c(-c1nc3c(c(C(N)=O)n1)C(C)(C(F)(F)F)C(=O)N3)nn2Cc1ccccc1F` (single isomer, unassigned; ent-2) [Example 14, ent-2-[5-fluoro-1-(2-fluorobenzyl)-6-methyl-1H-pyrazolo[3,4-b]pyridin-3-yl]-5-methyl-6-oxo-5-(trifluoromethyl)-6,7-dihydro-5H-pyrrolo[2,3-d]pyrimidine-4-carboxamide (enantiomer B)]: 130 nM corresponded to half-maximal inhibition in assay [1] (IC50). The MEC in assay [2] amounted to 0.03 µM.

On to `Cc1nc2c(cc1F)c(-c1nc3c(c(C(N)=O)n1)C(C)(C(F)(F)F)C(=O)N3)nn2Cc1c(F)ccc(F)c1F` (single isomer, unassigned; ent-2) [Example 16, ent-2-[5-Fluoro-6-methyl-1-(2,3,6-trifluorobenzyl)-1H-pyrazolo[3,4-b]pyridin-3-yl]-5-methyl-6-oxo-5-(trifluoromethyl)-6,7-dihydro-5H-pyrrolo[2,3-d]pyrimidine-4-carboxamide (enantiomer A)], for which half-maximal inhibition in assay [1] (IC50) required 170 nM. Also, in assay [2], the MEC was 0.17 µM.

Compound `Cc1nc2c(cc1F)c(-c1nc3c(c(C(N)=O)n1)C(C)(C(F)(F)F)C(=O)N3)nn2Cc1c(F)ccc(F)c1F` (single isomer, unassigned; ent-2) [Example 17, ent-2-[5-Fluoro-6-methyl-1-(2,3,6-trifluorobenzyl)-1H-pyrazolo[3,4-b]pyridin-3-yl]-5-methyl-6-oxo-5-(trifluoromethyl)-6,7-dihydro-5H-pyrrolo[2,3-d]pyrimidine-4-carboxamide (enantiomer B)] registered an IC50 in assay [1] of 280 nM. For the same compound, in assay [2], the MEC amounted to 0.03 µM.
